As a reminder, the melting point is the temperature of the solid-liquid transition. `COCCOc1cc2c(cc1C(F)(F)F)NC(=O)CC(c1cccc(-c3cc(C)nc(C)c3)c1)=N2` [Example 243, 4-[3-(2,6-Dimethyl-pyridin-4-yl)-phenyl]-7-(2-methoxy-ethoxy)-8-trifluoromethyl-1,3-dihydro-benzo[b][1,4]diazepin-2-one]: the melting point fell in the range of 213 to 214 °C.
`C=Cc1cc2c(cc1C(F)(F)F)NC(=O)CC(c1cccc(-c3ccnc(C)c3)c1)=N2` [Example 244, 4-[3-(2-Methyl-pyridin-4-yl)-phenyl]-8-trifluoromethyl-7-vinyl-1,3-dihydro-benzo[b][1,4]diazepin-2-one] gave a melting point of 200 to 201 °C.
`Cc1cc(C)c(-c2cccc(C3=Nc4cc(C)c(C(F)(F)F)cc4NC(=O)C3)c2)cn1` [Example 245, 4-[3-(4,6-Dimethyl-pyridin-3-yl)-phenyl]-7-methyl-8-trifluoromethyl-1,3-dihydro-benzo[b][1,4]diazepin-2-one] came in with a melting point of 218 to 219 °C.
`CCOc1cc2c(cc1C(F)(F)F)NC(=O)CC(c1cccc(-c3cnc(C4CC4)cc3C)c1)=N2` [Example 247, 4-[3-(6-Cyclopropyl-4-methyl-pyridin-3-yl)-phenyl]-7-ethoxy-8-trifluoromethyl-1,3-dihydro-benzo[b][1,4]diazepin-2-one] displayed a melting point of 202 °C.
As for `Cc1cc(C2CC2)ncc1-c1cccc(C2=Nc3cc(OCC(F)(F)F)c(C(F)(F)F)cc3NC(=O)C2)c1` [Example 248, 4-[3-(6-Cyclopropyl-4-methyl-pyridin-3-yl)-phenyl]-7-(2,2,2-trifluoro-ethoxy)-8-trifluoromethyl-1,3-dihydro-benzo[b][1,4]diazepin-2-one], the melting point worked out at 206 °C.
As to `CCOc1cc2c(cc1C(F)(F)F)NC(=O)CC(c1cccc(-c3cc(C)nc(CC)c3)c1)=N2` [Example 250, 7-Ethoxy-4-[3-(2-ethyl-6-methyl-pyridin-4-yl)-phenyl]-8-trifluoromethyl-1,3-dihydro-benzo[b][1,4]diazepin-2-one], the melting point amounted to 215 °C.
In the case of `CCc1cc(-c2cccc(C3=Nc4cc(OCC(F)(F)F)c(C(F)(F)F)cc4NC(=O)C3)c2)cc(C)n1` [Example 251, 4-[3-(2-Ethyl-6-methyl-pyridin-4-yl)-phenyl]-7-(2,2,2-trifluoro-ethoxy)-8-trifluoromethyl-1,3-dihydro-benzo[b][1,4]diazepin-2-one], the melting point stood at 209 °C.
Consider `CCOc1cc2c(cc1C(F)(F)F)NC(=O)CC(c1cccc(-c3cnc(C)cc3C)c1)=N2` [Example 252, 4-[3-(4,6-Dimethyl-pyridin-3-yl)-phenyl]-7-ethoxy-8-trifluoromethyl-1,3-dihydro-benzo[b][1,4]diazepin-2-one], for which the melting point was 226 to 228 °C.
For `Cc1cc(C)c(-c2cccc(C3=Nc4cc(OCC(F)(F)F)c(C(F)(F)F)cc4NC(=O)C3)c2)cn1` [Example 253, 4-[3-(4,6-Dimethyl-pyridin-3-yl)-phenyl]-7-(2,2,2-trifluoro-ethoxy)-8-trifluoromethyl-1,3-dihydro-benzo[b][1,4]diazepin-2-one] the value was 176 to 180 °C.
The figure for `CCc1cc(C)c(-c2cccc(C3=Nc4cc(C)c(C(F)(F)F)cc4NC(=O)C3)c2)cn1` [Example 254, 4-[3-(6-Ethyl-4-methyl-pyridin-3-yl)-phenyl]-7-methyl-8-trifluoromethyl-1,3-dihydro-benzo[b][1,4]diazepin-2-one] is 200 °C; for `CCOc1cc2c(cc1C(F)(F)F)NC(=O)CC(c1cccc(-c3cnc(CC)cc3C)c1)=N2` [Example 255, 7-Ethoxy-4-[3-(6-ethyl-4-methyl-pyridin-3-yl)-phenyl]-8-trifluoromethyl-1,3-dihydro-benzo[b][1,4]diazepin-2-one] it is 205 °C; for `CCc1cc(C)c(-c2cccc(C3=Nc4cc(OCC(F)(F)F)c(C(F)(F)F)cc4NC(=O)C3)c2)cn1` [Example 256, 4-[3-(6-Ethyl-4-methyl-pyridin-3-yl)-phenyl]-7-(2,2,2-trifluoro-ethoxy)-8-trifluoromethyl-1,3-dihydro-benzo[b][1,4]diazepin-2-one] it is 145 to 160 °C.
The figure for `Cc1cc(-c2cccc(C3=Nc4cc(C)c(C(F)(F)F)cc4NC(=O)C3)c2)cc(C2CC2)n1` [Example 257, 4-[3-(2-Cyclopropyl-6-methyl-pyridin-4-yl)-phenyl]-7-methyl-8-trifluoromethyl-1,3-dihydro-benzo[b][1,4]diazepin-2-one] is 257 °C; for `CCOc1cc2c(cc1C(F)(F)F)NC(=O)CC(c1cccc(-c3cc(C)nc(C4CC4)c3)c1)=N2` [Example 258, 4-[3-(2-Cyclopropyl-6-methyl-pyridin-4-yl)-phenyl]-7-ethoxy-8-trifluoromethyl-1,3-dihydro-benzo[b][1,4]diazepin-2-one] it is 232 °C.
With `Cc1cc(-c2cccc(C3=Nc4cc(OCC(F)(F)F)c(C(F)(F)F)cc4NC(=O)C3)c2)cc(C2CC2)n1` [Example 259, 4-[3-(2-Cyclopropyl-6-methyl-pyridin-4-yl)-phenyl]-7-(2,2,2-trifluoro-ethoxy)-8-trifluoromethyl-1,3-dihydro-benzo[b][1,4]diazepin-2-one], the melting point was determined as 200 °C.
`Cc1cc2c(cc1C(F)(F)F)NC(=O)CC(c1cccc(-c3cccnc3C)c1)=N2` [Example 260, 7-Methyl-4-[3-(2-methyl-pyridin-3-yl)-phenyl]-8-trifluoromethyl-1,3-dihydro-benzo[b][1,4]diazepin-2-one] registered a melting point of 246 °C.
Take `Cc1cc(-c2cccc(C3=Nc4cc(CO)c(C(F)(F)F)cc4NC(=O)C3)c2)ccn1` [Example 261, 7-Hydroxymethyl-4-[3-(2-methyl-pyridin-4-yl)-phenyl]-8-trifluoromethyl-1,3-dihydro-benzo[b][1,4]diazepin-2-one]: the melting point was found to be 218 °C.
The compound `Cc1cc2c(cc1C(F)(F)F)NC(=O)CC(c1cccc(-c3ccnc(CC(C)C)c3)c1)=N2` [Example 262, 4-[3-(2-Isobutyl-pyridin-4-yl)-phenyl]-7-methyl-8-trifluoromethyl-1,3-dihydro benzo[b][1,4]diazepin-2-one] came in with a melting point of 209 °C.
In the case of `Cc1cc2c(cc1Cl)NC(=O)CC(c1cccc(-c3ccnc(C(F)(F)F)c3)c1)=N2` [Example 264, 8-Chloro-7-methyl-4-[3-(2-trifluoromethyl-pyridin-4-yl)-phenyl]-1,3-dihydro-benzo[b][1,4]diazepin-2-one], the melting point stood at 247 °C.
In turn, `Cc1cc2c(cc1C(F)(F)F)NC(=O)CC(c1cccc(-c3ccnc(C(F)(F)F)c3)c1)=N2` [Example 265, 7-Methyl-8-trifluoromethyl-4-[3-(2-trifluoromethyl-pyridin-4-yl)-phenyl]-1,3-dihydro-benzo[b][1,4]diazepin-2-one] yielded a melting point of 247 °C.
The compound `O=C1CC(c2cccc(-c3ccnc(C(F)(F)F)c3)c2)=Nc2cc(Cl)c(C(F)(F)F)cc2N1` [Example 266, 7-Chloro-8-trifluoromethyl-4-[3-(2-trifluoromethyl-pyridin-4-yl)-phenyl]-1,3-dihydro-benzo[b][1,4]diazepin-2-one] displayed a melting point of 229 °C.
For `O=C1CC(c2cccc(-c3ccnc(C(F)(F)F)c3)c2)=Nc2cc(Cl)c(Cl)cc2N1` [Example 267, 7,8-Dichloro-4-[3-(2-trifluoromethyl-pyridin-4-yl)-phenyl]-1,3-dihydro-benzo[b][1,4]diazepin-2-one] the value was 226 °C; for `O=C1CC(c2cccc(-c3ccnc(C(F)(F)F)c3)c2)=Nc2cc(OCC(F)(F)F)c(C(F)(F)F)cc2N1` [Example 268, 7-(2,2,2-Trifluoro-ethoxy)-8-trifluoromethyl-4-[3-(2-trifluoromethyl-pyridin-4-yl)-phenyl]-1,3-dihydro-benzo[b][1,4]diazepin-2-one], 220 °C; for `CCOc1cc2c(cc1C(F)(F)F)NC(=O)CC(c1cccc(-c3ccnc(C(F)(F)F)c3)c1)=N2` [Example 269, 7-Ethoxy-8-trifluoromethyl-4-[3-(2-trifluoromethyl-pyridin-4-yl)-phenyl]-1,3-dihydro-benzo[b][1,4]diazepin-2-one], 251 °C.
Consider `Cc1cc2c(cc1Cl)NC(=O)CC(c1cccc(-c3ccnc(C(C)C)c3)c1)=N2` [Example 270, 8-Chloro-4-[3-(2-isopropyl-pyridin-4-yl)-phenyl]-7-methyl-1,3-dihydro-benzo[b][1,4]diazepin-2-one], for which the melting point was 196 °C.
For `Cc1cc2c(cc1C(F)(F)F)NC(=O)CC(c1cccc(-c3ccnc(C(C)C)c3)c1)=N2` [Example 271, 4-[3-(2-Isopropyl-pyridin-4-yl)-phenyl]-7-methyl-8-trifluoromethyl-1,3-dihydro benzo[b][1,4]diazepin-2-one] the value was 205 °C; for `CC(C)c1cc(-c2cccc(C3=Nc4ccc(C(F)(F)F)cc4NC(=O)C3)c2)ccn1` [Example 272, 4-[3-(2-Isopropyl-pyridin-4-yl)-phenyl]-8-trifluoromethyl-1,3-dihydro benzo[b][1,4]diazepin-2-one], 168 °C; for `CC(C)c1cc(-c2cccc(C3=Nc4cc(Cl)c(C(F)(F)F)cc4NC(=O)C3)c2)ccn1` [Example 273, 7-Chloro-4-[3-(2-isopropyl-pyridin-4-yl)-phenyl]-8-trifluoromethyl-1,3-dihydro benzo[b][1,4]diazepin-2-one], 200 °C.
The compound `CC(C)c1cc(-c2cccc(C3=Nc4cc(Cl)c(Cl)cc4NC(=O)C3)c2)ccn1` [Example 274, 7,8-Dichloro-4-[3-(2-isopropyl-pyridin-4-yl)-phenyl]-1,3-dihydro-benzo[b][1,4]diazepin-2-one] came in with a melting point of 195 °C.
The compound `CC(C)c1cc(-c2cccc(C3=Nc4cc(OCC(F)(F)F)c(C(F)(F)F)cc4NC(=O)C3)c2)ccn1` [Example 275, 4-[3-(2-Isopropyl-pyridin-4-yl)-phenyl]-7-(2,2,2-trifluoro-ethoxy)-8-trifluoromethyl-1,3-dihydro-benzo[b][1,4]diazepin-2-one] yielded a melting point of 202 °C.
The compound `CCOc1cc2c(cc1C(F)(F)F)NC(=O)CC(c1cccc(-c3ccnc(C(C)C)c3)c1)=N2` [Example 276, 4-[3-(2-Isopropyl-pyridin-4-yl)-phenyl]-7-ethoxy-8-trifluoromethyl-1,3-dihydro-benzo[b][1,4]diazepin-2-one] registered a melting point of 217 °C.
